One data set relates to adrenergic β-2 receptors. Nature of the data set: cAMP production in human PC3 cells. The conditions noted are these: PC-3, read-out: EC50 for cAMP production.
Data set [1] has as its system Antigen-specific T-cell lines. Nature of the data set: Antigen-specific T-cell lines: proliferation, apoptosis, cytokine secretion. The format is cell-based, human. The procedure:
Parallel lines were generated in the presence of propranolol. Cells were evaluated for proliferation, apoptosis, and cytokine secretion.

The format of data set [2] is physicochemical. The source says:
The chemical and optical purities of all batches used for biological studies have been >98%. […] No polymorphs have been detected.

For data set [3] the following is noted: horse.
Data set [4] concerns isolated human leukocytes (buffy coat). Nature of the data set: A23187-stimulated histamine release from isolated human leukocytes. The class given is cell-based. Particulars: for inhibition of release of the marker inflammatory mediator histamine: A23187 5 μM, 20 min/37° C., 4×10^−4 M to 10^−6 M. The method, then:
In this study, histamine was the marker compound for inflammatory mediators that are released from pro-inflammatory cells. The inhibition of stimulated histamine release from isolated human leukocytes (buffy coat) by test articles was studied. The method is a modification of the methodology described by Nolte et al. (1988). Leukocytes were obtained from healthy volunteers and inflammatory mediator release was induced by incubation (20 min/37° C.) with the Ca-ionophore A23187 (5 μM) in the presence or absence of a test article. Histamine was analyzed by enzyme-immuno assays (E.I.A.), using commercially available kits and a microplate reader (MRX, Dynatech). The test articles were tested in each assay at five concentrations ranging from 4×10^−4 M to 10^−6 M, in duplicate. In the same experiment, a reference compound was tested in duplicate at eight concentrations to obtain an inhibition curve to validate the experiment (not shown here). Results: […]

The test system of data set [5] is M-form phenolsulfotransferase (M-PST). Briefly: Sulfotransferase activity in horse liver cytosol / intestinal mucosa. The class given is in vitro ADME. The method, then: Method: The livers from recently slaughtered horses are homogenized and the cytosol is prepared by differential centrifugation. The protein concentration of the cytosolic preparation is determined by the Lowry method (Lowry O. H. et al.: Protein measurement with the foline phenol reagent. J. Biol. Chem. 1951, 193: 265-275). […] Cytosol from the livers is incubated at 15 °C. After removal of unmetabolized beta-2 agonist with ethyl acetate, free drug is released from the conjugate using sulfatase. The concentrations of beta-2 agonist enantiomers are analyzed by chiral HPLC assay.
Results from tests with intestinal mucosa yielded the same surprising results.

Data set [6] concerns equine bronchial smooth muscle. Briefly: Carbachol-induced contractions of equine bronchial smooth muscle (hyperreactivity). Further details: species or system horse. The conditions noted are these: 37° C. The procedure: In this study, segments of equine bronchial smooth muscle are mounted on special holders and immersed in a physiologic solution containing glucose and aerated with 95% O2 and 5% CO2 at 37° C. Isometric tension is measured with force transducers and registered electronically. The effects of R-, RS- and S-albuterol on carbachol-induced contractions are studied.

The test system of data set [7] is isolated guinea pig tracheas. Nature of the data set: Inhibition of airway smooth muscle contractions, isolated guinea pig tracheas. The conditions noted are these: Cavia porcellus, read-out: pD2 (converted). The procedure:
The following study was performed in vitro, using isolated guinea pig tracheas. The airway smooth muscle tissues were contracted by carbachol or ovalbumin or histamine. […] Results: pD2 Values of the Enantiomers of Albuterol

In the next data set the test system is pro-inflammatory cells. Particulars: cited from earlier work.
The mark [8] stands for this setting: contractile stimulus Carbachol (10^-6 M).
The mark [9] stands for this setting: contractile stimulus Histamine (10^-5 M).
Where [10] appears, read: contractile stimulus Ovalbumin (10-5 g/ml).

Structures can show the parent of a compound that is named as a salt. Where two headings read alike, the source gives them in different places.

For the molecule `CC(C)(C)NCC(O)c1ccc(O)c(CO)c1` (racemic) [RS-albuterol], the EC50 in the data set on adrenergic β-2 receptors came out at 0.207 µM. The influence on proliferation result in [1] was “minimal influences”. Moreover, the cytokine production result in data set [1] (10(−8) mol/L each isomer) was “no influence”.

Turning to `CC(C)(C)NC[C@H](O)c1ccc(O)c(CO)c1.Cl` [R(−)-albuterol hydrochloride], the solubility in water entry in data set [2] is “readily soluble”.

In the case of `CC(C)(C)NC[C@H](O)c1ccc(O)c(CO)c1.CC(C)(C)NC[C@H](O)c1ccc(O)c(CO)c1.O=S(=O)(O)O` [R(−)-albuterol sulfate], in data set [2], the solubility in water entry was “readily soluble”.

As for `CC(C)(C)NC[C@H](O)c1ccc(O)c(CO)c1` [R(−)-albuterol, (R)-[…]^1-[[(1,1-dimethylethyl)amino]methyl]-4-hydroxy-1,3-benzene-dimethanol, sulfate (2:1) (salt)], the “inversion to S-albuterol” value in [3] is reported as “no such inversion takes place”. Further, the “inhibition of release of the marker inflammatory mediator histamine” value in data set [4] is “Neither R(−)-albuterol nor S(+)-albuterol inhibited the release”. Also, the EC50 was 0.1 µM with adrenergic β-2 receptors, 0.0794 µM in data set [7] (setting [8]), 0.02 µM in data set [7] (setting [9]) and 0.00501 µM in data set [7] (setting [10]). Also, the “intestinal or hepatic metabolism by M-form phenolsulfotransferase” value in data set [5] is on record as “not to undergo intestinal or hepatic metabolism”. For the same molecule, the T-cell proliferation in data set [1] (10(−7) mol/L, % of control) was 61.1%±9.0%; in [1] (10(−8) mol/L) it was 77.0%±9.7%. For the same molecule, in [1] (10(−8) mol/L), the “IL-2 and IFN-gamma production” value is recorded as “inhibited”. Moreover, in data set [6], the “effect on equine bronchial smooth muscle” value is reported as “causing bronchorelaxation”.

For the molecule `CC(C)(C)NC[C@@H](O)c1ccc(O)c(CO)c1` [S(+)-albuterol], the “inhibition of release of the marker inflammatory mediator histamine” value in data set [4] is listed as “Neither R(−)-albuterol nor S(+)-albuterol inhibited the release”. For the same molecule, the “increase of release of histamine from leukocytes” value in [4] (at concentrations of 10 μM and higher) is “significantly and dose-dependently increased the release”. For the same molecule, the EC50 in the data set on adrenergic β-2 receptors is 14 µM; in [7] (setting [8]), 79.4 µM; in [7] (setting [9]), 5.01 µM; in data set [7] (setting [10]), 31.6 µM. Besides, the “facilitation of release of inflammatory mediators” value in the data set on pro-inflammatory cells is “facilitating the release”. Also, the “influence on T-cell proliferation” value in data set [1] (S(+)-albuterol alone) is “No influence was observed”. For the same molecule, the “effect on equine bronchial smooth muscle” value in data set [6] is recorded as “causing bronchial hyperreactivity”.

(Values after patent US20050020692A1, “Treatment of heaves” (priority 2003, published 2005).)
